The values that follow come from US7776848B2, “Spirocyclic cyclohexane compounds” (Gruenenthal GmbH, priority 2004, dated 2010).

Experiment [1] deals with T1, 5HT uptake (serotonin reuptake), synaptosomes from hypothalamus of male rat brains (Rattus norvegicus, UniProt P31652).
T1 construct: synaptosomes are freshly isolated from areas of rat brain; from tissue; host or cells: synaptosomes (P2 fraction) from hypothalamus of male rat brains
In words: Serotonin reuptake inhibition (5HT uptake inhibition) in rat brain synaptosomes. In kind it is biochemical. As for the experimental part:
Biological Testing a) Studies of Serotonin Reuptake Inhibition (5HT Uptake Inhibition)
In order to be able to carry out these in vitro studies, synaptosomes are freshly isolated from areas of rat brain. A so-called “P2” fraction is used in each case, which is prepared according to the procedure of Gray and Whittaker (E. G. Gray and V. P. Whittaker (1962) J. Anat. 76, 79-88). For 5HT uptake, these vesicular particles are isolated from the hypothalamus of male rat brains. A detailed description of the method can be found in the literature (M. Ch. Frink, H.-H. Hennies, W. Englberger, M. Haurand and B. Wilffert (1996) Arzneim.-Forsch./Drug Res. 46 (III), 11, 1029-1036).

The target in experiment [2] is T2, NA uptake (noradrenaline reuptake), synaptosomes from hypothalamus of male rat brains (Rattus norvegicus, UniProt Q63380).
T2 construct: synaptosomes are freshly isolated from areas of rat brain; from tissue; host or cells: synaptosomes (P2 fraction) from hypothalamus of male rat brains
In words: Noradrenaline reuptake inhibition (NA uptake inhibition) in rat brain synaptosomes. In kind it is biochemical. The procedure: b) Studies of Noradrenaline Reuptake Inhibition (NA Uptake Inhibition)
In order to be able to carry out these in vitro studies, synaptosomes are freshly isolated from areas of rat brain. A so-called “P2” fraction is used in each case, which is prepared according to the procedure of Gray and Whittaker (E. G. Gray and V. P. Whittaker (1962) J. Anat. 76, 79-88). For NA uptake, these vesicular particles are isolated from the hypothalamus of male rat brains. A detailed description of the method can be found in the literature (M. Ch. Frink, H.-H. Hennies, W. Englberger, M. Haurand and B. Wilffert (1996) Arzneim.-Forsch./Drug Res. 46 (III), 11, 1029-1036).

Where a name gives a salt, the structure may show the parent alone.

T2 sequence (Q63380 1-617): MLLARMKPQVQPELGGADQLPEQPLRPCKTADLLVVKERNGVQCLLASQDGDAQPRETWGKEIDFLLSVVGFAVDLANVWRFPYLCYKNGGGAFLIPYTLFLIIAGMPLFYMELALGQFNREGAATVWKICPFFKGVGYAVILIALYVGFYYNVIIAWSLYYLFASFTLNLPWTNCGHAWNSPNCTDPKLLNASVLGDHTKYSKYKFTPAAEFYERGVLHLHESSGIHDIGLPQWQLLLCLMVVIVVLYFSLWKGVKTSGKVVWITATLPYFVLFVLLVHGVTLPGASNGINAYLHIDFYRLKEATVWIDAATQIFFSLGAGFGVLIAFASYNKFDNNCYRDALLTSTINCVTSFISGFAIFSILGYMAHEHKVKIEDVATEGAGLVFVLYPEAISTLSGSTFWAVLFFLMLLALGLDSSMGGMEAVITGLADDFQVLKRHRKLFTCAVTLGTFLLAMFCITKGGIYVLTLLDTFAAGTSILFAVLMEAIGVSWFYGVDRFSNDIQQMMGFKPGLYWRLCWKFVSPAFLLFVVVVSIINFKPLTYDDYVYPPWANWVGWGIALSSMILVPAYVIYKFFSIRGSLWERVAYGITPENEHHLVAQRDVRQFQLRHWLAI
T1 sequence (P31652 whole entry): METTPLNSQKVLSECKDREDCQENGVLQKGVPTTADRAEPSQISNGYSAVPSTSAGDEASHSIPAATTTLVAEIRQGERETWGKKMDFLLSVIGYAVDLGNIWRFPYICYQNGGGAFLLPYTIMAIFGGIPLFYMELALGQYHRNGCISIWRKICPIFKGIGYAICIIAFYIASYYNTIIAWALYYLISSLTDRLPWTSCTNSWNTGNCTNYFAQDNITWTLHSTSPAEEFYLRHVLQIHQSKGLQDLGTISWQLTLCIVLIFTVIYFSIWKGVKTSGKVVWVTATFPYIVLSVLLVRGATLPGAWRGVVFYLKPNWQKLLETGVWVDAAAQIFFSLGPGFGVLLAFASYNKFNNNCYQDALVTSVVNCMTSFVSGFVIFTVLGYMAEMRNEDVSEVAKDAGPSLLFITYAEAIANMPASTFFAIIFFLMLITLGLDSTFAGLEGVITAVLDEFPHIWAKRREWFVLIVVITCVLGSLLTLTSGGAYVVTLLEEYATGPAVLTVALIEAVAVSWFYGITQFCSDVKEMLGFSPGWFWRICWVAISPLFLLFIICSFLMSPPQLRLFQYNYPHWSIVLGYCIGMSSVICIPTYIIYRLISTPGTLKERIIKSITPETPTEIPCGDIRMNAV

`CN(C)CC1CC2(CCC1(O)c1ccccc1)SCCc1c2[nH]c2ccccc12` (centres unmarked) [Example 9, 1,1-(2-(Dimethylaminomethyl)-3-hydroxy-3-phenyl-pentamethylene)-1,3,4,9-tetrahydro-2-thia-9-aza-fluorene citrate] returned an inhibition at 10 µM in experiment [1] of 81%. Still for that read-out and setting: for `Cc1ccccc1C1(O)CCC2(CC1CN(C)C)NCCc1c2[nH]c2ccccc12` (centres unmarked) [Example 6, 1,1-(2-(Dimethylaminomethyl)-3-hydroxy-3-(2-methylphenyl)-pentamethylene)-3,4-dihydro-1H-2,9-diazafluorene citrate] the value was 69%. Consider `Cc1ccccc1C1(O)CCC2(CC1CN(C)C)NCCc1c2[nH]c2cc(F)ccc12` (centres unmarked) [Example 32, 1,1-(2-(Dimethylaminomethyl)-3-hydroxy-3-(2-methylphenyl)-pentamethylene)-7-fluoro-3,4-dihydro-1H-2,9-diazafluorene citrate], for which the inhibition at 10 µM in experiment [1] turned out to be 75%; in experiment [2] it was 38%. `COc1ccc2[nH]c3c(c2c1)CCNC31CCC(O)(c2ccccc2)C(CN(C)C)C1` (centres unmarked) [Example 17, 1,1-(2-(Dimethylaminomethyl)-3-hydroxy-3-phenyl-pentamethylene)-3,4-dihydro-6-methoxy-1H-2,9-diazafluorene citrate] had an inhibition at 10 µM in experiment [1] of 57%.

In the case of `CN(C)CC1CC2(CCC1(O)c1ccc(C(F)(F)F)cc1)NCCc1c2[nH]c2cc(F)ccc12` (centres unmarked) [Example 33, 1,1-(2-(Dimethylaminomethyl)-3-hydroxy-3-(4-trifluoromethylphenyl)-pentamethylene)-7-fluoro-3,4-dihydro-1H-2,9-diazafluorene citrate], the inhibition at 10 µM was found to be 78% in experiment [1] and 68% in experiment [2]. On the same counts, the results for `CSc1ccc(C2(O)CCC3(CC2CN(C)C)OCCc2c3sc3ccccc23)cc1` (centres unmarked) [Example 31, 1,1-(2-(dimethylaminomethyl)-3-hydroxy-3-(4-methylthiophenyl)-pentamethylene)-1,3,4,9-tetrahydro-pyrano[3,4-b]benzothiophene citrate] are 82% and 60%. Take `CSc1ccc(C2(O)CCC3(CC2CN(C)C)SCCc2c3[nH]c3ccccc23)cc1` (centres unmarked) [Example 23, 1,1-(2-(Dimethylaminomethyl)-3-hydroxy-3-(4-methylthiophenyl)-pentamethylene)-1,3,4,9-tetrahydro-2-thia-9-aza-fluorene sesquicitrate]: the inhibition at 10 µM in experiment [1] was 50%. In the case of `COc1ccc2[nH]c3c(c2c1)CCNC31CCC(O)(c2cccc(F)c2)C(CN(C)C)C1` (centres unmarked) [Example 21, 1,1-(2-(Dimethylaminomethyl)-3-hydroxy-3-(3-fluorophenyl)-pentamethylene)-3,4-dihydro-6-methoxy-1H-2,9-diazafluorene citrate], the results for the inhibition at 10 µM in experiment [1] and in experiment [2] were 57% and 44%, respectively. In the case of `COc1ccc2[nH]c3c(c2c1)CCNC31CCC(O)(c2ccc(C(F)(F)F)cc2)C(CN(C)C)C1` (centres unmarked) [Example 22, 1,1-(2-(Dimethylaminomethyl)-3-hydroxy-3-(4-trifluoromethylphenyl)-pentamethylene)-3,4-dihydro-6-methoxy-1H-2,9-diazafluorene citrate], the inhibition at 10 µM in experiment [1] turned out to be 47%. Regarding `Cc1ccccc1C1(O)CCC2(CC1CN(C)C)OCCc1c2sc2ccccc12` (centres unmarked) [Example 11, 1,1-(2-(Dimethylaminomethyl)-3-hydroxy-3-(2-methylphenyl)-pentamethylene)-1,3,4,9-tetrahydro-pyrano[3,4-b]benzothiophene citrate], the inhibition at 10 µM is 85% in experiment [1] and 43% in experiment [2]. Turning to `CN(C)CC1CC2(CCC1(O)c1ccccc1)OCCc1c2sc2ccccc12` (centres unmarked) [Example 7, 1,1-(2-(Dimethylaminomethyl)-3-hydroxy-3-phenyl-pentamethylene)-1,3,4,9-tetrahydro-pyrano[3,4-b]benzothiophene citrate], the results for the inhibition at 10 µM in experiment [1] and in experiment [2] were 88% and 59%, respectively.

`CSc1ccc(C2(O)CCC3(CC2CN(C)C)NCCc2c3[nH]c3ccccc23)cc1` (centres unmarked) [Example 26, 1,1-(2-(Dimethylaminomethyl)-3-hydroxy-3-(4-methylthiophenyl)-pentamethylene)-3,4-dihydro-1H-2,9-diazafluorene citrate] gave an inhibition at 10 µM in experiment [2] of 40%. Regarding `CN(C)CC1CC2(CCC1(O)c1ccccc1)NCCc1c2[nH]c2cc(F)ccc12` (centres unmarked) [Example 35, 1,1-(2-(Dimethylaminomethyl)-3-hydroxy-3-phenyl-pentamethylene)-7-fluoro-3,4-dihydro-1H-2,9-diazafluorene dicitrate], the inhibition at 10 µM in experiment [1] stood at 67%. As to `CN(C)CC1CC2(CCC1(O)c1ccc(C(F)(F)F)cc1)NCCc1c2[nH]c2ccccc12` (centres unmarked) [Example 15, 1,1-(2-(Dimethylaminomethyl)-3-hydroxy-3-(4-trifluoromethylphenyl)-pentamethylene)-3,4-dihydro-1H-2,9-diazafluorene dicitrate], the figures for the inhibition at 10 µM in experiment [1] and in experiment [2] were 83% and 76%, respectively. `CSc1ccc(C2(O)CCC3(CC2CN(C)C)OCCc2c3[nH]c3ccccc23)cc1` (centres unmarked) [Example 20, 1,1-(2-(Dimethylaminomethyl)-3-hydroxy-3-(4-methylthiophenyl)-pentamethylene)-1,3,4,9-tetrahydro-pyrano[3,4-b]indole citrate] came in with an inhibition at 10 µM in experiment [1] of 58%.

With `CN(C)CC1CC2(CCC1(O)c1ccc(C(F)(F)F)cc1)OCCc1c2sc2ccccc12` (centres unmarked) [Example 29, 1,1-(2-(Dimethylaminomethyl)-3-hydroxy-3-(4-trifluoromethylphenyl)-pentamethylene)-1,3,4,9-tetrahydro-pyrano[3,4-b]benzothiophene citrate], the figures for the inhibition at 10 µM in experiment [1] and in experiment [2] were 47% and 35%, respectively. On the same counts, the results for `Cc1ccccc1C1(O)CCC2(CC1CN(C)C)SCCc1c2[nH]c2ccccc12` (centres unmarked) [Example 24, 1,1-(2-(Dimethylaminomethyl)-3-hydroxy-3-(2-methylphenyl)-pentamethylene)-1,3,4,9-tetrahydro-2-thia-9-aza-fluorene citrate] are 75% and 42%. As for `COc1ccc2[nH]c3c(c2c1)CCOC31CCC(O)(c2ccc(SC)cc2)C(CN(C)C)C1` (centres unmarked) [Example 18, 1,1-(2-(Dimethylaminomethyl)-3-hydroxy-3-(4-methylthiophenyl)-pentamethylene)-1,3,4,9-tetrahydro-6-methoxy-pyrano[3,4-b]indole citrate], in experiment [2], 10 µM produced 41% inhibition. On to `CN(C)CC1CC2(CCC1(O)c1cccc(F)c1)SCCc1c2[nH]c2ccccc12` (centres unmarked) [Example 14, 1,1-(2-(Dimethylaminomethyl)-3-hydroxy-3-(3-fluorophenyl)-pentamethylene)-1,3,4,9-tetrahydro-2-thia-9-aza-fluorene citrate], for which the inhibition at 10 µM is 61% in experiment [1] and 46% in experiment [2]. The matching figures for `CN(C)CC1CC2(CCC1(O)c1ccc(C(F)(F)F)cc1)OCCc1c2oc2ccccc12` (centres unmarked) [Example 13, 1,1-(2-(Dimethylaminomethyl)-3-hydroxy-3-(4-trifluoromethylphenyl)-pentamethylene)-1,3,4,9-tetrahydro-pyrano[3,4-b]benzofuran citrate]: 60% and 46%. In experiment [1], `CN(C)CC1CC2(CCC1(O)c1cccc(F)c1)NCCc1c2[nH]c2cc(F)ccc12` (centres unmarked) [Example 16, 1,1-(2-(Dimethylaminomethyl)-3-hydroxy-3-(3-fluorophenyl)-pentamethylene)-7-fluoro-3,4-dihydro-1H-2,9-diazafluorene sesquicitrate] had an inhibition at 10 µM of 72%. As for `CN(C)CC1CC2(CCC1(O)c1cccc(F)c1)OCCc1c2sc2ccccc12` (centres unmarked) [Example 10, 1,1-(2-(Dimethylaminomethyl)-3-hydroxy-3-(3-fluorophenyl)-pentamethylene)-1,3,4,9-tetrahydro-pyrano[3,4-b]benzothiophene citrate], the inhibition at 10 µM in experiment [1] came out at 88%; in experiment [2], 55%.

`CSc1ccc(C2(O)CCC3(CC2CN(C)C)OCCc2c3oc3ccccc23)cc1` (centres unmarked) [Example 30, 1,1-(2-(dimethylaminomethyl)-3-hydroxy-3-(4-methylthiophenyl)-pentamethylene)-1,3,4,9-tetrahydro-pyrano[3,4-b]benzofuran citrate]: the figures for the inhibition at 10 µM in experiment [1] and in experiment [2] were 83% and 37%, respectively. On the same counts, the results for `CN(C)CC1CC2(CCC1(O)c1cccc(F)c1)NCCc1c2[nH]c2ccccc12` (centres unmarked) [Example 3, 1,1-(2-(Dimethylaminomethyl)-3-hydroxy-3-(3-fluorophenyl)-pentamethylene)-3,4-dihydro-1H-2,9-diazafluorene citrate] are 75% and 48%.
